Assay results published in patent US8217042B2, “Pyridopyrazines and their use as modulators of kinases” (Zentaris GmbH, priority 2005, dated 2012).

Tests used:
p38alpha = target: T1, p38alpha (Homo sapiens, UniProt Q16539); experiment: Cell-free kinase assay (ALPHA technology), p38alpha; assay type: biochemical; conditions: at 10 μM or 100 μM* ATP, recombinant human kinase
T1 construct: in some cases as full-length kinases, in some cases as truncated fragments
Experimental: The inhibitory effect of the inventive compounds was tested on various human serine/threonine kinases, tyrosine kinases and lipid kinases in enzymatic assays. Recombinant human kinases, for example Erk2, PI3Kalpha, -beta, -gamma, -delta, p38alpha, p38gamma, Jnk1, Jnk2 and others were used, in some cases as full-length kinases, in some cases as truncated fragments—but at least consisting of the functional kinase domains. The commercial kinase proteins (Proqinase, Upstate) were used as recombinant fusion proteins with GST (glutathione S-transferase) tag or His tag. Depending on the substrate type, the different kinase reactions were quantified by means of suitable ALPHA™ beads (PerkinElmer). […]
The fluorescence was detected the next morning in a Fusion™ alpha instrument (Perkin Elmer).
The calculation of % inhibition values per substance concentration was done by means of the following formula from the raw data determined in the Fusion™ alpha:
The controls were each determined 8 times, the substance samples each twice. 0% control contained neither any ATP nor any substrate; the 100% control contained no test substance. The IC50 values were determined with GraphPadPrism.

PI3K →pAkt = experiment: Cellular substrate phosphorylation (Western blotting), PI3K substrate Akt; assay type: cell-based; conditions: 5 h, tumour cell line
Experimental: (§1) This method enables a statement of whether the kinase modulator investigated achieves the desired effect in a cellular context too, i.e., in this case, a substrate protein downstream of the target kinase is examined for its phosphorylation status. To this end, the cells incubated with substance are lysed and the overall protein is separated on a reducing polyacrylamide gel. Subsequently, the proteins are transferred by means of Western blotting to a PVDF membrane and the substrate bands sought are made visible with specific antibodies and a suitable detection method. The substrate proteins downstream of the target kinases are detected simultaneously with an anti-phospho antibody which is specific in each case and simultaneously a total antibody which recognizes the substrate total protein. The duplex technology of the ODYSSEY imager (LiCOR) enables this simultaneous measurement. The intensity of the total substrate bands is employed to normalize and quantify the phosphorylation inhibition or activation.
(§2) Suitable tumour cell lines (e.g. BxPC3, Hct116 or MDA MB468) were seeded into 6-well microtitre plates in a defined cell count (e.g. 350 000 cells/well for BxPC3 and Hct116) in the particular standard complete media and then incubated overnight in an incubator at 37° C., 5% CO2 and 95% air humidity. The cells were then incubated further for a further 24 h under reduced-serum conditions, i.e. in the particular medium except at only 0.25% serum. The test substances were made up as stock solutions (10 mM) in DMSO and incubated with the cells at final concentrations of 5, 15.8 and 50 μM for 5 h. This was followed by cell lysis in 25 mM Tris, 150 mM NaCl, 10 mM sodium pyrophosphate, 2 mM EGTA, 25 mM beta-glycerophosphate, 25 mM NaF, 10% glycerol, 0.75% NP-40, 100 μM NaVO4 buffer. After protein quantification by means of BCA (bicinchonic acid protein assay kit, Sigma) assay, amounts of protein of about 20 μg per track were separated on a Lammli polyacrylamide gel and then transferred onto a PVDF membrane (Millipore) by means of semi-dry Western blotting at 0.8 mA/cm^2 for 1 h. This was followed by prehybridization of the membrane for 1 hour in I-block reagent (Applied Biosystems) and overnight incubation with the specific antibodies. To determine the Erk and PI3K inhibition, the next substrates Rsk1 downstream were detected with the total antibody (Rsk #sc-231g C-21, Santa Cruz) and the phospho antibody (Phospho-p90RSK (S380) #9341, NEB Cell Signalling) and Akt with the total antibody (Akt1 #sc-20, Santa Cruz) and the phospho antibody (Phospho-Akt (Ser 473) #9271, NEB Cell Signaling). After the membrane had been washed, the secondary antibodies were incubated with anti-rabbit IR Dye 800 (#611-732-127, Rockland) for the phospho antibody and anti-goat Alexa Fluor 680 (#A-21081, […]) for the total protein antibody. After incubation for 30 min at room temperature in the dark, the hybridization of the detection antibody was detected on the membrane by scanning in an ODYSSEY imager (LiCOR).

Erk →pRsk = experiment: Cellular substrate phosphorylation (Western blotting), Erk substrate Rsk1; assay type: cell-based; conditions: 5 h, tumour cell line
Experimental: as §1, §2

T1 sequence (Q16539 whole entry, the tested form may be a part): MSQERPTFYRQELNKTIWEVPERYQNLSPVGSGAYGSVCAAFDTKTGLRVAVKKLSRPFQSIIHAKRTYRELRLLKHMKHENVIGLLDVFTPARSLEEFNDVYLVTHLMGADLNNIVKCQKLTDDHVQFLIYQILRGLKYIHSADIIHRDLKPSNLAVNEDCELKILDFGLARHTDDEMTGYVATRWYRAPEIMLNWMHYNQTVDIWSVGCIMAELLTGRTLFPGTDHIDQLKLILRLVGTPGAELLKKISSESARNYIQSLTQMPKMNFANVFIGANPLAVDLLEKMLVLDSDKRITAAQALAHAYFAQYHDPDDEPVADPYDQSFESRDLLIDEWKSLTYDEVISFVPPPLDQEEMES

IC50 (p38alpha): 4 µM
Compound: CCNC(=O)Nc1ccc2ncc(Nc3ccc(C)c(NS(C)(=O)=O)c3)nc2n1 [Compound 49, N-{5-[6-(3-Ethylurea)pyrido[2,3-b]pyrazin-3-ylamino]-2-methylphenyl}methanesulphonamide]
inhibition at 50 µM (PI3K →pAkt): 90% | inhibition at 50 µM (Erk →pRsk): 0%
